According to patent publication US20160068466A1, “ESTER DERIVATIVES OF ANDROGEN RECEPTOR MODULATORS AND METHODS FOR THEIR USE” (The University of British Columbia, priority 2013, published 2016):
Like-named read-outs stand apart in the source and are kept apart here.

Columns and labels:
androgen receptor = molecular target: T1, androgen receptor (Homo sapiens, UniProt P10275, T878A); experiment: PSA(6.1 kb)-luciferase reporter assay in LNCaP cells induced with R1881; format: cell-based
T1 construct: LNCaP cells express endogenous AR; endogenous in cells; host or cells: LNCaP
T1 sequence (P10275 1-920 T878A): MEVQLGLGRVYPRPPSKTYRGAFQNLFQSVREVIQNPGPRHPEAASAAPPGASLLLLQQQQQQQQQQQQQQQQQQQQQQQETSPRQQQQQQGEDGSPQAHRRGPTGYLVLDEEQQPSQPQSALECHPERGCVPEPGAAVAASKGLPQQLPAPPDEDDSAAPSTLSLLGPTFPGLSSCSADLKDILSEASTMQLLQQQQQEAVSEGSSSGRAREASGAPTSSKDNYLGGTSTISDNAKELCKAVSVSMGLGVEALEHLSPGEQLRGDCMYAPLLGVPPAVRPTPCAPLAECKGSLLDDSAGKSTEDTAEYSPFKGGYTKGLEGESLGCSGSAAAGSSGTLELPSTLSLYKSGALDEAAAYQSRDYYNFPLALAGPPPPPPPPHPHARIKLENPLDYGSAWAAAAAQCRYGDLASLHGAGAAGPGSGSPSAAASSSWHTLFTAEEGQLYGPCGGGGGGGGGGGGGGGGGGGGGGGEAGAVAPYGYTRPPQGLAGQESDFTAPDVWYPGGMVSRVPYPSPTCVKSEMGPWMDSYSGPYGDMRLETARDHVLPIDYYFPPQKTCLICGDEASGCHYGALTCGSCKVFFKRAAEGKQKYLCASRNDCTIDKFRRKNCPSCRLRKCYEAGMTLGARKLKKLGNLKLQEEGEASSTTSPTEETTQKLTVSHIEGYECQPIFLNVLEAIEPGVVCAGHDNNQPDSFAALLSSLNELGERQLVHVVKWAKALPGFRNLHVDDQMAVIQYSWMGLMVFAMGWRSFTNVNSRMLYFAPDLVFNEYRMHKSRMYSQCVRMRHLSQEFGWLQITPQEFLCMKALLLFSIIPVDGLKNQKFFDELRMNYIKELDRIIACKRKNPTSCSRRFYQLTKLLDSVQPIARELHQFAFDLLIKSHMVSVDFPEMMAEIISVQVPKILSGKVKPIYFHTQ
Text: LNCaP cells were employed for experiments because they are well-differentiated human prostate cancer cells in which ligand-dependent and ligand-independent activation of AR by FSK has been characterized (Nazareth et al 1996 J. Biol. Chem. 271, 19900-19907; and Sadar 1999 J Biol. Chem. 274, 7777-7783). LNCaP cells express endogenous AR and secrete prostate-specific antigen (PSA) (Horoszewicz et al 1983 Cancer Res. 43, 1809-1818). LNCaP cells can be grown either as monolayers in cell culture or as tumors in the well-characterized xenograft model that progresses to castration-resistant prostate cancer (CRPC) in castrated hosts (Sato et al 1996 J. Steroid Biochem. Mol. Biol. 58, 139-146; Gleave et al 1991 Cancer Res. 51, 3753-3761; Sato et al 1997 Cancer Res. 57, 1584-1589; and Sadar et al 2002 Mol. Cancer Ther. 1(8), 629-637). R1881 (a synthetic androgen) is employed since it is stable and avoids problems associated with the labile physiological ligand dihydrotestosterone (DHT).
One well characterized ARE-driven reporter gene construct that has been used extensively is the PSA (6.1 kb) enhance/promoter which contains several AREs and is highly inducible by androgens as well as by FSK (Ueda et al 2002 A J. Biol. Chem. 277, 7076-7085).
LNCaP (2.4×10^4 cell/well) cells were seeded on 24-well plates overnight before transfection with PSA(6.1 kb)-luciferase plasmid (0.25 ug/well) in serum-free, red phenol-free media. The next day, cells were pre-treated with compounds of the disclosure for 1 hour before the addition of synthetic androgen, R1881 (1 nM) to trans activate the androgen receptor. After 48 h of incubation with R1881, the cells were harvested, and relative luciferase activity was determined as a read-out for androgen receptor transcriptional activity. Test compounds were added to the cells at various concentrations and activity for each treatment was normalized to the predicted maximal activity induction (in the absence of test compounds, vehicle only). Transfection experiments were performed using triplicate wells.
Further experiments, as outlined in Example 22, were conducted with LNCaP cells transfected with PSA-luciferase plasmid to evaluate the dose response of particular compounds of the disclosure.

LNCaP cells = experiment: AlamarBlue proliferation assay, androgen-dependent proliferation of LNCaP cells in response to R1881; format: cell-based, human; settings: 0.1 nM R1881, 3 days, FIG. 10
Procedure: Protocol: Proliferation assays using AlamarBlue, wherein the % androgen-dependent proliferation represents proliferation of LNCaP cells in response to R1881 compared to basal levels.
PC3 and LNCaP cells were plated in 96-well plates in respective media plus 0.5% FBS. […] Cell viability was measured using alamarBlue Cell Viability Assay (Invitrogen) following the manufacturer's protocol.

LNCaP xenografts = experiment: LNCaP xenograft tumor volume in castrated NOD-SCID mice; format: in vivo
Procedure: Male NOD-SCID mice bearing subcutaneous tumors were castrated when tumor volume was approximately 100 mm3.
Tumors were measured using caliphers and the volume calculated by application of the formula (L×W×H)*0.5236.
Animals bearing LNCaP xenografts were dosed daily by oral gavage with 55.23 mg/kg body weight of Compound 7c or CMC/10% DMSO/Tween-20 vehicle control.
Tumors were measured using caliphers and the volume calculated by application of the formula (L×W×H)*0.5236Male

[1] = PSA-luc, mean, read-out: PSA-luc IC50s MEAN
[2] = LNCaP cells transfected with PSA-luciferase plasmid, R1881 1 nM, 48 h, data of FIG. 9, read-out: IC50 (μM + Standard Deviation)

| SMILES | IC50 (androgen receptor; [1]) | IC50 (androgen receptor; [2]) | also measured |
| --- | --- | --- | --- |
| CC(=O)OC[C@@H](O)COc1ccc(C(C)(C)c2ccc(OC[C@H](O)CCl)cc2)cc1 [Compound 1c] |  | 25.6 µM |  |
| CC(=O)OC[C@H](COc1ccc(C(C)(C)c2ccc(OC[C@@H](CCl)OC(C)=O)cc2)cc1)OC(C)=O [Compound 7c, (S)-3-(4-(2-(4-((S)-2-acetoxy-3-chloropropoxy)phenyl)propan-2-yl)phenoxy)propane-1,2-diyl diacetate] |  | 8.81 µM | potency in proliferation assay relative to active compound (compound A) (LNCaP cells): twice as potent; tumor volume (LNCaP xenografts; Example 25, daily oral gavage, 10% DMSO/corn oil vehicle control, FIG. 11): effective at reducing tumor volume; tumor volume reduction compared with compound A (LNCaP xenografts; Example 25, daily oral gavage, FIG. 11): more effective than its active compound; tumor volume (LNCaP xenografts; Example 26, 55.23 mg/kg body weight daily by oral gavage, CMC/10% DMSO/Tween-20 vehicle control, FIG. 12): effective at reducing tumor volume |
| CC(=O)OC[C@H](COc1ccc(C(C)(C)c2ccc(OC[C@H]3CO3)cc2)cc1)OC(C)=O [Example 11, (S)-3-(4-(2-(4-((R)-oxiran-2-ylmethoxy)phenyl)propan-2-yl)phenoxy)propane-1,2-diyl diacetate] | 26 µM |  |  |
| COC[C@@H](COc1ccc(C(C)(C)c2ccc(OC[C@@H](CCl)OC(C)=O)cc2)cc1)OC(C)=O [Example 21, (S)-1-(4-(2-(4-((S)-2-acetoxy-3-chloropropoxy)phenyl)propan-2-yl)phenoxy)-3-methoxypropan-2-yl acetate] |  | 8.07 µM |  |

Second part, led by results:

| IC50 (androgen receptor; [1]) | IC50 (androgen receptor; [2]) | SMILES | also measured |
| --- | --- | --- | --- |
| 12.1 µM |  | CC(C)(c1ccc(OC[C@H](O)CCl)cc1)c1ccc(OC[C@H](O)COC(=O)CN)cc1 [(S)-3-(4-(2-(4-((S)-3-chloro-2-hydroxypropoxy)phenyl)propan-2-yl)phenoxy)-2-hydroxypropyl 2-aminoacetate] |  |
|  | 11.6 µM | CC(=O)O[C@H](CCl)COc1ccc(C(C)(C)c2ccc(OC[C@H](O)CO)cc2)cc1 [Compound 3c] |  |
| 15.3 µM |  | CC(=O)OC[C@H](COc1ccc(C(C)(C)c2ccc(OC[C@H](O)CCl)cc2)cc1)OC(C)=O [Compound 4c, (S)-3-(4-(2-(4-((S)-3-chloro-2-hydroxypropoxy)phenyl)propan-2-yl)phenoxy)propane-1,2-diyl diacetate] |  |
|  | 9.8 µM | COC[C@H](O)COc1ccc(C(C)(C)c2ccc(OC[C@H](O)CCl)cc2)cc1 [Compound B, reference compound] |  |
| 60.2 µM |  | CC(C)(c1ccc(OC[C@@H](CCl)OC(=O)CCC(=O)O)cc1)c1ccc(OC[C@@H](COC(=O)CCC(=O)O)OC(=O)CCC(=O)O)cc1 [Example 13, (S)-3-(4-(2-(4-((S)-3-chloro-2-hydroxypropoxy)phenyl)propan-2-yl)phenoxy)propane-1,2-diol trisuccinate] |  |
